Values of other authors, collected in patent US8759371B2, “Heterocyclic compounds and their uses” (Amgen Inc., priority 2010, dated 2014).

Experiments:
[1] = system: systemic lupus erythematosis model; conditions: in vivo
[2] = system: rheumatoid arthritis model; conditions: in vivo
[3] = molecular target: T1, p110δ (Homo sapiens, UniProt O00329)
T1 sequence (O00329 1-1044): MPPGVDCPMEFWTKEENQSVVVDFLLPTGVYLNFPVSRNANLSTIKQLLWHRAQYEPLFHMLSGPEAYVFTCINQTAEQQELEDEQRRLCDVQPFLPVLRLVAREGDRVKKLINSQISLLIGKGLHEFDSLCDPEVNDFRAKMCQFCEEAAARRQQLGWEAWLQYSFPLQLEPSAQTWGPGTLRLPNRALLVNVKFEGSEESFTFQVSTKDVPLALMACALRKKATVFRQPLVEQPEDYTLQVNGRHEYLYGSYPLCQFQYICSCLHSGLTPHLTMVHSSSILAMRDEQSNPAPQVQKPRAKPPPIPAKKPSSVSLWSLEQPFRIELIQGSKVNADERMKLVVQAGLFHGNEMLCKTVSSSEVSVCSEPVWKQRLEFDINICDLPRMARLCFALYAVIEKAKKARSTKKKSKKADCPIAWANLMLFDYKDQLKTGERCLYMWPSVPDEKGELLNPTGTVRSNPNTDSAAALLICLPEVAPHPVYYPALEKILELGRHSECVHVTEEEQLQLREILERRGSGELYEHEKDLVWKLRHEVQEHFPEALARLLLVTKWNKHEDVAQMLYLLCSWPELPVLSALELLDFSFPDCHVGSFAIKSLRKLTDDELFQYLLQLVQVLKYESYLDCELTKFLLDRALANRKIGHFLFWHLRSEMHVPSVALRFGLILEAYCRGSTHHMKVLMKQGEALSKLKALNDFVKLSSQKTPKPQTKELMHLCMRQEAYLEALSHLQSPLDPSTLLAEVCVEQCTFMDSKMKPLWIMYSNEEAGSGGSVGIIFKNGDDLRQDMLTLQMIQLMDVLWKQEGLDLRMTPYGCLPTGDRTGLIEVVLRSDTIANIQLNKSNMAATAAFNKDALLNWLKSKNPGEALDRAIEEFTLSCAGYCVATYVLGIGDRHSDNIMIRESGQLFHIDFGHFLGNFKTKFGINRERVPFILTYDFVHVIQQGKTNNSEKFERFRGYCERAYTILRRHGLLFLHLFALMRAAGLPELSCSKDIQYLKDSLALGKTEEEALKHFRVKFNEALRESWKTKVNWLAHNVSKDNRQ

[4] = system: protein kinases
[5] = system: ovalbumin-induced airway inflammation
[6] = system: passive cutaneous anaphylaxis (PCA); conditions: absence of functional delta (IC 87114 and p110δ D910A mice)

| SMILES | onset of disease in model of systemic lupus erythematosis [1] | efficacy in mouse model of rheumatoid arthritis [2] | inhibits p110δ [3] | activity against any protein kinases tested [4] | inflammation and disease in murine model of asthma [5] | passive cutaneous anaphylaxis (PCA) [6] |
| --- | --- | --- | --- | --- | --- | --- |
| O=C1NC(=O)/C(=C\c2ccc3nccnc3c2)S1 [AS 605240] | delay onset of disease | efficacious | – | – | – | – |
| Cc1ccccc1-n1c(Cn2cnc3c(N)ncnc32)nc2cccc(C)c2c1=O [IC87114] | – | – | high nanomolar range (triple digit) | no activity | significantly ameliorate inflammation and disease | significantly reduced |
